ChEMBL document CHEMBL2010754, “Unusual isomeric corniculatolides from mangrove, Aegiceras corniculatum” (J Nat Prod, 2012)
Active and inactive are the calls of the source.

Columns and labels:
Assay type in all cases: functional, organism-based
Escherichia coli = test: Antibacterial activity against Escherichia coli by agar diffusion method
Aspergillus niger = test: Antifungal activity against Aspergillus niger by agar diffusion method
Klebsiella pneumoniae = test: Antibacterial activity against Klebsiella pneumoniae by agar diffusion method
Micrococcus luteus = test: Antibacterial activity against Micrococcus luteus by agar diffusion method
Aspergillus terreus = test: Antifungal activity against Aspergillus terreus by agar diffusion method
Staphylococcus aureus = test: Antibacterial activity against Staphylococcus aureus by agar diffusion method
Aspergillus flavus = test: Antifungal activity against Aspergillus flavus by agar diffusion method
Bacillus subtilis = test: Antibacterial activity against Bacillus subtilis by agar diffusion method

Measured: Activity

COc1ccc2cc1Oc1ccc(cc1)CCC(=O)OCCC2
inactive: all assays above

COc1ccc2cc1Oc1ccc(cc1)CCCOC(=O)CC2
inactive: all assays above

O=C1CCc2ccc(O)c(c2)Oc2ccc(cc2)CCCO1
inactive: all assays above

COc1c(O)cc2cc1Oc1ccc(cc1)CCCOC(=O)CC2
inactive: all assays above

O=C1CCc2ccc(cc2)Oc2cc(ccc2O)CCCO1
inactive: all assays above
